Reference: the NIST ThermoML archive (doi:10.1021/je700339f)
Numbers after ± are expanded uncertainties.

Settings: Liquid

ClCCCCCCCl [1,6-dichlorohexane]
mass density [kg/m3]
Settings	288.15 K	298.15 K
100 kPa	1073.7 ± 1.4	1063.8 ± 1.4
500 kPa	1073.9 ± 1.4	1064.2 ± 1.4
1000 kPa	1074.3 ± 1.4	1064.4 ± 1.4
1500 kPa	–	1064.8 ± 1.4
1600 kPa	1074.6 ± 1.4	–
2000 kPa	1075 ± 1.5	1065.2 ± 1.4
2500 kPa	1075.3 ± 1.5	1065.5 ± 1.4
3100 kPa	1075.7 ± 1.5	1065.9 ± 1.4
3600 kPa	1076 ± 1.5	1066.3 ± 1.4
4100 kPa	1076.3 ± 1.5	1066.7 ± 1.5
4500 kPa	–	1066.9 ± 1.5
4600 kPa	1076.6 ± 1.5	–
5000 kPa	–	1067.3 ± 1.5
5100 kPa	1076.9 ± 1.5	–
5600 kPa	1077.3 ± 1.6	1067.6 ± 1.5
6100 kPa	1077.6 ± 1.6	1068 ± 1.5
6500 kPa	1077.9 ± 1.6	–
6600 kPa	–	1068.4 ± 1.5
7100 kPa	1078.3 ± 1.6	1068.7 ± 1.5
7600 kPa	1078.5 ± 1.6	1069 ± 1.5
8100 kPa	1078.9 ± 1.6	1069.4 ± 1.6
8600 kPa	1079.2 ± 1.6	1069.7 ± 1.6
9100 kPa	1079.5 ± 1.7	–
9200 kPa	–	1070.1 ± 1.6
9600 kPa	1079.9 ± 1.7	1070.4 ± 1.6
10100 kPa	1080.2 ± 1.7	1070.7 ± 1.6
10600 kPa	1080.5 ± 1.7	1071.1 ± 1.6
11000 kPa	–	1071.3 ± 1.6
11100 kPa	1080.8 ± 1.7	–
11600 kPa	1081.2 ± 1.7	–
11700 kPa	–	1071.7 ± 1.7
12100 kPa	1081.5 ± 1.8	1071.9 ± 1.7
12600 kPa	1081.8 ± 1.8	1072.3 ± 1.7
13100 kPa	1082.1 ± 1.8	1072.6 ± 1.7
13600 kPa	1082.4 ± 1.8	1072.9 ± 1.7
14200 kPa	1082.8 ± 1.8	1073.3 ± 1.7
14700 kPa	1083 ± 1.8	1073.6 ± 1.7
15200 kPa	1083.4 ± 1.8	1074 ± 1.8
15700 kPa	1083.7 ± 1.9	1074.3 ± 1.8
16300 kPa	1084 ± 1.9	–
16400 kPa	–	1074.8 ± 1.8
16800 kPa	1084.3 ± 1.9	1075.2 ± 1.8
17300 kPa	1084.6 ± 1.9	1075.5 ± 1.8
17800 kPa	1084.9 ± 1.9	1075.8 ± 1.8
18300 kPa	1085.3 ± 1.9	1076.1 ± 1.9
18700 kPa	–	1076.4 ± 1.9
18800 kPa	1085.5 ± 2	–
19200 kPa	1085.7 ± 2	1076.7 ± 1.9
19700 kPa	1086 ± 2	1076.9 ± 1.9
20200 kPa	1086.5 ± 2	1077.3 ± 1.9
